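Results reflect a 48-hour exposure of cells in 96-well plates to compound at five concentrations. GI50 marks 50% less growth. TGI denotes the concentration required for complete inhibition of growth.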
Experiments:
Assay in all cases: DTP human tumour cell line panel, 48 h; in the data active means GI50 below about 0.43 µM; inactive means the rest
786-0 renal = system: 786-0 renal
A498 renal = system: A498 renal
A549 NSCLC = system: A549 NSCLC
ACHN renal = system: ACHN renal
CAKI-1 renal = system: CAKI-1 renal
CCRF-CEM leukemia = system: CCRF-CEM leukemia
COLO 205 colon = system: COLO 205 colon
DU-145 prostate = system: DU-145 prostate
EKVX NSCLC = system: EKVX NSCLC
HCC-2998 colon = system: HCC-2998 colon
HCT-116 colon = system: HCT-116 colon
HCT-15 colon = system: HCT-15 colon
HL-60(TB) leukemia = system: HL-60(TB) leukemia
HOP-62 NSCLC = system: HOP-62 NSCLC
HOP-92 NSCLC = system: HOP-92 NSCLC
HS 578T breast = system: HS 578T breast
HT29 colon = system: HT29 colon
IGROV1 ovarian = system: IGROV1 ovarian
K-562 leukemia = system: K-562 leukemia
KM12 colon = system: KM12 colon
LOX IMVI melanoma = system: LOX IMVI melanoma
M14 melanoma = system: M14 melanoma
MALME-3M melanoma = system: MALME-3M melanoma
MCF7 breast = system: MCF7 breast
MDA-MB-231 breast = system: MDA-MB-231 breast
MDA-MB-435 = system: MDA-MB-435
MOLT-4 leukemia = system: MOLT-4 leukemia
NCI-H226 lung = system: NCI-H226 lung
NCI-H23 lung = system: NCI-H23 lung
NCI-H460 lung = system: NCI-H460 lung
NCI-H522 lung = system: NCI-H522 lung
NCI/ADR-RES ovarian = system: NCI/ADR-RES ovarian
OVCAR-3 ovarian = system: OVCAR-3 ovarian
OVCAR-4 ovarian = system: OVCAR-4 ovarian
OVCAR-5 ovarian = system: OVCAR-5 ovarian
OVCAR-8 ovarian = system: OVCAR-8 ovarian
PC-3 prostate = system: PC-3 prostate
RPMI-8226 leukemia = system: RPMI-8226 leukemia
RXF 393 renal = system: RXF 393 renal
SF-268 CNS = system: SF-268 CNS
SF-295 CNS = system: SF-295 CNS
SF-539 CNS = system: SF-539 CNS
SK-MEL-2 melanoma = system: SK-MEL-2 melanoma
SK-MEL-28 melanoma = system: SK-MEL-28 melanoma
SK-MEL-5 melanoma = system: SK-MEL-5 melanoma
SK-OV-3 ovarian = system: SK-OV-3 ovarian
SN12C renal = system: SN12C renal
SNB-19 CNS = system: SNB-19 CNS
SNB-75 CNS = system: SNB-75 CNS
SR leukemia = system: SR leukemia
SW-620 colon = system: SW-620 colon
T-47D breast = system: T-47D breast
TK-10 renal = system: TK-10 renal
U251 CNS = system: U251 CNS
UACC-257 melanoma = system: UACC-257 melanoma
UACC-62 melanoma = system: UACC-62 melanoma
UO-31 renal = system: UO-31 renal

COc1cccc(-c2nc3sccn3c2-c2ccnc(NCCCNS(=O)(=O)c3ccccc3)c2)c1
6.24 µM: TGI (T-47D breast)
6.3 µM: TGI (PC-3 prostate)
5.08 µM: TGI (UACC-62 melanoma)
15 µM: TGI (NCI-H522 lung)
4.26 µM: TGI (RPMI-8226 leukemia)
20.8 µM: TGI (SF-295 CNS)
9.73 µM: TGI (MALME-3M melanoma)
> 100 µM: TGI (786-0 renal) | TGI (A498 renal) | TGI (A549 NSCLC) | TGI (ACHN renal) | TGI (CAKI-1 renal) | TGI (CCRF-CEM leukemia) | TGI (COLO 205 colon) | TGI (DU-145 prostate) | TGI (EKVX NSCLC) | TGI (HCC-2998 colon) | TGI (HCT-116 colon) | TGI (HCT-15 colon) | TGI (HOP-62 NSCLC) | TGI (HOP-92 NSCLC) | TGI (HS 578T breast) | TGI (HT29 colon) | TGI (IGROV1 ovarian) | TGI (K-562 leukemia) | TGI (KM12 colon) | TGI (LOX IMVI melanoma) | TGI (M14 melanoma) | TGI (MCF7 breast) | TGI (MDA-MB-231 breast) | TGI (MDA-MB-435) | TGI (NCI-H226 lung) | TGI (NCI-H23 lung) | TGI (NCI-H460 lung) | TGI (OVCAR-3 ovarian) | TGI (OVCAR-4 ovarian) | TGI (OVCAR-5 ovarian) | TGI (OVCAR-8 ovarian) | TGI (RXF 393 renal) | TGI (SF-268 CNS) | TGI (SF-539 CNS) | TGI (SK-MEL-28 melanoma) | TGI (SK-OV-3 ovarian) | TGI (SN12C renal) | TGI (SNB-19 CNS) | TGI (SW-620 colon) | TGI (TK-10 renal) | TGI (U251 CNS) | TGI (UACC-257 melanoma) | TGI (UO-31 renal)
8.7 µM: TGI (NCI/ADR-RES ovarian)
7.04 µM: TGI (MOLT-4 leukemia)
5.63 µM: TGI (HL-60(TB) leukemia)
8.85 µM: TGI (SK-MEL-2 melanoma)
inactive: GI50 (786-0 renal) 6.03 µM | GI50 (A498 renal) 2.92 µM | GI50 (A549 NSCLC) 3.45 µM | GI50 (ACHN renal) 2.66 µM | GI50 (CAKI-1 renal) 2.81 µM | GI50 (CCRF-CEM leukemia) 2.73 µM | GI50 (COLO 205 colon) 3.01 µM | GI50 (DU-145 prostate) 3.14 µM | GI50 (EKVX NSCLC) 3.68 µM | GI50 (HCC-2998 colon) 4.38 µM | GI50 (HCT-116 colon) 3.32 µM | GI50 (HCT-15 colon) 3.02 µM | GI50 (HL-60(TB) leukemia) 2.33 µM | GI50 (HOP-62 NSCLC) 3.43 µM | GI50 (HOP-92 NSCLC) 0.885 µM | GI50 (HS 578T breast) 3.51 µM | GI50 (HT29 colon) 3.23 µM | GI50 (IGROV1 ovarian) 3.14 µM | GI50 (K-562 leukemia) 2.57 µM | GI50 (KM12 colon) 2.97 µM | GI50 (LOX IMVI melanoma) 3.12 µM | GI50 (M14 melanoma) 3.36 µM | GI50 (MALME-3M melanoma) 2.59 µM | GI50 (MCF7 breast) 3.83 µM | GI50 (MDA-MB-231 breast) 3.48 µM | GI50 (MDA-MB-435) 3.53 µM | GI50 (MOLT-4 leukemia) 2.25 µM | GI50 (NCI-H226 lung) 2.92 µM | GI50 (NCI-H23 lung) 2.99 µM | GI50 (NCI-H460 lung) 3.35 µM | GI50 (NCI-H522 lung) 2.34 µM | GI50 (NCI/ADR-RES ovarian) 2.62 µM | GI50 (OVCAR-3 ovarian) 3.3 µM | GI50 (OVCAR-4 ovarian) 2.87 µM | GI50 (OVCAR-5 ovarian) 5.45 µM | GI50 (OVCAR-8 ovarian) 2.99 µM | GI50 (PC-3 prostate) 1.97 µM | GI50 (RPMI-8226 leukemia) 1.61 µM | GI50 (RXF 393 renal) 5.79 µM | GI50 (SF-268 CNS) 3.46 µM | GI50 (SF-295 CNS) 3.18 µM | GI50 (SF-539 CNS) 5.43 µM | GI50 (SK-MEL-2 melanoma) 2.87 µM | GI50 (SK-MEL-28 melanoma) 3.59 µM | GI50 (SK-MEL-5 melanoma) 1.88 µM | GI50 (SK-OV-3 ovarian) 5.43 µM | GI50 (SN12C renal) 2.76 µM | GI50 (SNB-19 CNS) 4.92 µM | GI50 (SNB-75 CNS) 1.55 µM | GI50 (SR leukemia) 3.57 µM | GI50 (SW-620 colon) 3.81 µM | GI50 (T-47D breast) 1.73 µM | GI50 (TK-10 renal) 4.27 µM | GI50 (U251 CNS) 4.55 µM | GI50 (UACC-257 melanoma) 3.57 µM | GI50 (UACC-62 melanoma) 1.98 µM | GI50 (UO-31 renal) 2.07 µM
8.08 µM: TGI (SNB-75 CNS)
92.6 µM: TGI (SR leukemia)
3.77 µM: TGI (SK-MEL-5 melanoma)

Reference: PubChem BioAssay (NCI)
